In US12553033B2, “Medium, methods, cells and secreted factors for stem cell culture and therapy” (SanBio, Inc., priority 2016, dated 2026):

Legend:
[1] = tested on: Human bone marrow derived mesenchymal stem cells; assay: TNFSF10 (TRAIL) mRNA induction (quantitative real-time PCR) in mesenchymal stem cells, type 1 priming; format: cell-based; conditions: normalized to 18S rRNA
Protocol: Referring to FIG. 4A and FIG. 4B, Type 1 mesenchymal stem cell priming by TLR4 is further enhanced with leukotriene B4 (LTB4), serotonin (5-HT), melatonin (MEL). Human bone marrow derived mesenchymal stem cells were induced into type 1 mesenchymal stem cells using lipopolysaccharide (LPS) and 0.5 ng/ml of human recombinant erythropoietin. Total RNA was isolated, purified, and reverse transcribed to cDNA. Quantitative real-time PCR was carried out using SYBR Green Master Mix. Data were analyzed using the quantitative comparative CT method, normalizing target gene expression to the 18S rRNA housekeeping gene, and shown as fold increase over the untreated control. […] Error bars represent +/− the standard error of the mean (SEM). […] TLR4 (approx. 425,854-fold FIG. 4A; approx. 7,567-fold FIG. 4B), LTB4 (approx. 49-fold FIG. 4A; approx. 49-fold FIG. 4B), 5-HT (approx. 333-fold FIG. 4B), or MEL (approx. 489-fold FIG. 4B).

[2] = tested on: Human bone marrow derived mesenchymal stem cells; assay: CXCL9 mRNA induction (quantitative real-time PCR) in mesenchymal stem cells, type 2 priming; format: cell-based; conditions: normalized to 18S rRNA
Protocol: Referring to FIG. 3A and FIG. 3B, Type 2 mesenchymal stem cell priming by TLR3 is further enhanced with Acetylcholine (ACH), Glutamate (GLU), and Lipoxin A4 (LAX4). Human bone marrow derived mesenchymal stem cells were induced into type 2 mesenchymal cells using poly(I:C) and 0.5 ng/ml of human recombinant erythropoictin. Total RNA was isolated, purified, and reverse transcribed to cDNA. Quantitative real-time PCR was carried out using SYBR Green Master Mix. Data were analyzed using the quantitative comparative CT method, normalizing target gene expression to the 18S rRNA housekeeping gene, and shown as fold increase over the untreated control. […] Error bars represent +/− the standard error of the mean (SEM).

Row | Compound | TNFSF10 (TRAIL) gene expression, fold increase over the untreated control ([1]; FIG. 4B experiment) | CXCL9 gene expression, fold increase over the untreated control ([2]; FIG. 3A experiment) | CXCL9 gene expression, fold increase over the untreated control ([2]; FIG. 3B experiment) | TNFSF10 (TRAIL) gene expression, fold increase over the untreated control ([1]; FIG. 4A experiment)
1 | NCCc1c[nH]c2ccc(O)cc12 [5-HT, serotonin] | approx. 333 fold | – | – | –
2 | CC(=O)OCC[N+](C)(C)C [ACH, Acetylcholine] | – | approx. 3.7 fold | approx. 20 fold | –
3 | N[C@@H](CCC(=O)O)C(=O)O [GLU, Glutamate] | – | approx. 1.4 fold | approx. 16 fold | –
4 | CCCCC[C@H](O)/C=C/C=C\C=C\C=C\[C@@H](O)[C@@H](O)CCCC(=O)O [LAX4, Lipoxin A4] | – | approx. −2 fold | approx. 13 fold | –
5 | CCCCC/C=C\C[C@@H](O)/C=C/C=C/C=C\[C@@H](O)CCCC(=O)O [LTB4, leukotriene B4] | approx. 49 fold | – | – | approx. 49 fold
6 | COc1ccc2[nH]cc(CCNC(C)=O)c2c1 [MEL, melatonin] | approx. 489 fold | – | – | –
7 | poly(I:C) [TLR3] | – | approx. 8.8 fold | approx. 22 fold | –
